In patent US20220305115A1 (JANSSEN SCIENCES IRELAND UNLIMITED COMPANY, priority 2019, published 2022):

What was measured:
Type in all cases: cell-based
human TLR7 = target: T1, human TLR7 (Homo sapiens, UniProt Q9NYK1); assay: HEK-Blue human TLR7 cell SEAP reporter assay (NF-κB activation); settings: HEK-Blue human TLR7 cells, stimulation for 20 hours, Quanti Blue read at 640 nm
T1 construct: host or cells: HEK-Blue human TLR7 cells (HEK293-derived reporter line)
T1 sequence (Q9NYK1 27-1049): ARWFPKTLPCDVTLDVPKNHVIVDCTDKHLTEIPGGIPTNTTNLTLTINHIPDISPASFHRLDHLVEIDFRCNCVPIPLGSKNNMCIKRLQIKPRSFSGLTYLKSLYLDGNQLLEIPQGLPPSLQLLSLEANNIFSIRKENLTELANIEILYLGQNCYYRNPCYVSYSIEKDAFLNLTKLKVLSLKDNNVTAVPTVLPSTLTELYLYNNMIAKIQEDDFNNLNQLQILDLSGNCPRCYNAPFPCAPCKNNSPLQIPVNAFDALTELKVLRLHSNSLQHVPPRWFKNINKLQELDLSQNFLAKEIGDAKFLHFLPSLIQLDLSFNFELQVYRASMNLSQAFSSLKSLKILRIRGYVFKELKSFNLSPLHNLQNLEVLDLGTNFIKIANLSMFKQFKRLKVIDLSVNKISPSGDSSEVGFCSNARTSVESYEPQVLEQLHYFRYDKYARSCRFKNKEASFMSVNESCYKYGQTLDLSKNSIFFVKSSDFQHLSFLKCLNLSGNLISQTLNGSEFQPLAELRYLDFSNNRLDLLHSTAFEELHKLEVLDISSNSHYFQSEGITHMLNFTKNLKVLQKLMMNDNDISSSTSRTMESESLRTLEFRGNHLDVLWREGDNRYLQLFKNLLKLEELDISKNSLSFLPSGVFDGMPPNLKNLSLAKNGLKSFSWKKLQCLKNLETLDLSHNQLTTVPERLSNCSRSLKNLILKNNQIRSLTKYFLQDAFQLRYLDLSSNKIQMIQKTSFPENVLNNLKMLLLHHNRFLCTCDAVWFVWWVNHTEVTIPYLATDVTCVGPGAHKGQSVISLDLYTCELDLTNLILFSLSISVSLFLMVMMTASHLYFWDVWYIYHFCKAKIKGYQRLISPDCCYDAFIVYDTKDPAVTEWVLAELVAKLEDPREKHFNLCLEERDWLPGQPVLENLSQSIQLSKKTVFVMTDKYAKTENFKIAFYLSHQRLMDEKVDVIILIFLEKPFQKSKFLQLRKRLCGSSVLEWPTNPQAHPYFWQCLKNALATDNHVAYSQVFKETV
Description: For TLR8 and TLR7 activity testing, HEK-Blue human TLR8 or TLR7 cells (Invivogen, San Diego, Calif., USA) are used, respectively. These cells are designed for studying the stimulation of human TLR8 or TLR7 by monitoring the activation of NF-κB. A SEAP (secreted embryonic alkaline phosphatase) reporter gene is placed under the control of the IFN-b minimal promoter fused to five NF-κB and AP-1-binding sites. Therefore the reporter expression is regulated by the NF-κB promoter upon stimulation of human TLR8 or TLR7 for 20 hours. The cell culture supernatant SEAP reporter activity was determined using Quanti Blue kit (Invivogen, San Diego, Ca, USA) at a wavelength of 640 nm, a detection medium that turns purple/blue in the presence of alkaline phosphatase. EC50 values were determined using Activity Base analysis (ID Business Solution, Limited).

[1] = Off-target cytotoxicity, galactose-adapted HepG2 cells (Cell Titer Glo, 5 days); settings: human, galactose-adapted HepG2, five days incubation, intracellular ATP, read-out: CC50 GALHEPG2 CTG 50
Description: (§1) To assess potential off-target toxicity of certain compounds disclosed herein, the in vitro cytotoxicity of those compounds was profiled using a panel of 5 cell lines with various tissue origins. Compound cytotoxicity was examined in hepatoma-derived Huh-7 and HepG2 cells, prostate carcinoma-derived PC-3 cells, lymphoma derived MT-4 cells and a normal diploid lung cell line MRC-5. HepG2 and PC-3 cells used were adapted to grow in glucose-free galactose-containing medium. These cells have a relatively higher sensitivity to inhibitors of mitochondrial oxidative phosphorylation compared to the same cells maintained in standard glucose-containing culture medium (Marroquin et al., Toxicol. Sci. 2007; 97 (2):539-47). Cell viability was determined by measuring intracellular ATP levels following five days of continuous incubation with test compounds.
(§2) The human hepatoma Huh-7 cell line was obtained from ReBLikon GmbH (Mainz, Germany) {20879}. The MT-4 cell line (HTLV-1 transformed, human T lymphoblastoid cells) was obtained from the NIH AIDS Reagent program (Bathesda, Md.). The human hepatoblastoma cell line HepG2, human prostate carcinoma cell line PC-3, and normal fetal lung derived MRC-5 cells were obtained from the American Type Culture Collection (ATCC, Manassas, Va.).
(§3) Huh-7 cells were maintained in Dulbecco's Modified Eagle Medium (DMEM) supplemented with 10% fetal bovine serum (FBS, Hyclone, Logan, Utah), 1% non-essential amino acids (Gibco, Carlsbad, Calif.). PC-3 and HepG2 cells were adapted to grow in 0.2% galactose-containing, glucose-free Dulbecco's Modified Eagle Medium (DMEM) supplemented with 10% fetal bovine serum (FBS, Hyclone, Logan, Utah), 1% non-essential amino acids (Gibco, Carlsbad, Calif.), 1% Pyruvate (Cellgro), 1% Glutamax (Invitrogen, Carlsbad, Calif.). Galactose-adapted cells were maintained in the same culture medium. MRC-5 cells were maintained in Eagle's Minimum Essential Medium (EMEM) supplemented with 10% fetal bovine serum (FBS, Hyclone, Logan, Utah). MT-4 cells were maintained in RPMI-1640 supplemented with 10% fetal bovine serum (FBS, Hyclone, Logan, Utah). All cell culture media were also supplemented with 100 Units/mL penicillin, 100 μg/mL streptomycin (Gibco).
(§4) Using a Biotek uFlow Workstation (Biotek, Winooski, Vt.), 1500 HepG2, 1500 PC-3, 500 Huh7 or 1500 MRC-5 cells in 90 μL of culture media were dispensed into each well of black polystyrene tissue culture-treated 384-well plates. Plated cells were incubated for 24 hours in an incubator at 37° C., 5% CO2 and 90% humidity. Compound serial dilutions were performed in 100% DMSO in 384-well polypropylene (high recovery) plates on a Biomek FX Workstation (Beckman Coulter, Fullerton, Calif.). After 3-fold serial dilutions, 0.4 μL of compounds were transferred into 384-well plates containing cells using a Velocity 11 system equipped with a Bravo 384-well pipettor. The DMSO concentration in the final assay plates was 0.44% (v/v). Cells were incubated with compound(s) for five days at 37° C. Puromycin (44 μM final concentration) and DMSO (0.44%, v/v) were used as a positive and negative controls, respectively
(§5) At the end of the incubation period the cytotoxicity assay was performed as follows: Media from 384-well cell culture plates were aspirated with a Biotek EL405 plate-washer (Biotek) and cells were washed with 100 μL PBS once. Twenty microliters of Cell Titer Glo (Promega, Madison, Wis.) was added to each well of the plates with a Biotek uFlow liquid dispenser. Plates were incubated for 15 minutes at room temperature before luminescence was measured with a Perkin Elmer Envision Plate Reader (Perkin Elmer, Waltham, Mass.).
(§6) CC50 values were defined as the compound concentration that caused a 50% decrease in luminescence signal, and were calculated by non-linear regression using Pipeline Pilot software by applying a four parameter fit equation (Accelrys, San Diego, Calif.). Individual CC50 values are listed as μM concentrations.

[2] = Off-target cytotoxicity, galactose-adapted PC-3 cells (Cell Titer Glo, 5 days); settings: human, galactose-adapted PC-3, five days incubation, intracellular ATP, read-out: CC50 GALFC3 CTG 50
Description: as §1, with “These cells have a relatively higher sensitivity to inhibitors of mitochondrial oxidative phosphorylation compared to the same cells maintained in standard glucose-containing culture medium (Marroquin et al., Toxicol. Sci. 2007; 97 (2):539-47).” left out
as §2, with “The” for “The human hepatoma Huh-7 cell line was obtained from ReBLikon GmbH (Mainz, Germany) {20879}. The”
as §3, with “MT-4 cells were maintained in RPMI-1640 supplemented with 10% fetal bovine serum (FBS, Hyclone, Logan, Utah).” left out
as §4, with “C.” for “C. Puromycin (44 μM final concentration) and DMSO (0.44%, v/v) were used as a positive and negative controls, respectively”
as §5

Huh-7 cells = assay: Off-target cytotoxicity, Huh-7 cells (Cell Titer Glo, 5 days); settings: Huh-7, five days incubation, intracellular ATP; read-out: CC50 HEH7 CTG 50
Description: as §1, §2, §3, §4, §5, §6

MRC-5 cells = assay: Off-target cytotoxicity, MRC-5 cells (Cell Titer Glo, 5 days); settings: MRC-5, five days incubation, intracellular ATP; read-out: CC50 MHCS CTG 50
Description: as §1, §2, §3, §4, §5, §6

[3] = Off-target cytotoxicity, MT-4 cells (Cell Titer Glo, 5 days); settings: human, MT-4, five days incubation, intracellular ATP, read-out: CC50 (MT4)
Description: as §1, with “These cells have a relatively higher sensitivity to inhibitors of mitochondrial oxidative phosphorylation compared to the same cells maintained in standard glucose-containing culture medium (Marroquin et al., Toxicol. Sci. 2007; 97 (2):539-47).” left out
as §2, with “The” for “The human hepatoma Huh-7 cell line was obtained from ReBLikon GmbH (Mainz, Germany) {20879}. The”
as §3, with “MT-4 cells were maintained in RPMI-1640 supplemented with 10% fetal bovine serum (FBS, Hyclone, Logan, Utah).” left out
For the MT-4 cytotoxicity assay, 0.4 μL of serially diluted compounds were added to 40 μl of cell maintenance media in 384-well black, solid bottom plate using a Biomek FX workstation (Beckman Coulter). Two thousand cells in 35 μL were added to each well using a Biotek uFlow Workstation (Biotek). […] Assay plates were incubated for five days at 37° C. in an incubator set at 5% CO2 and 90% humidity. After five days, 22 μL of Cell Titer Glo reagent (Promega) was added to the assay plates with a Biotek uFlow Workstation. Plates were subsequently placed on a Perkin Elmer Envision Plate Reader for five minutes before the luminescence signal was read.

| SMILES | EC50 (human TLR7) | CC50 at 5 days [1] | CC50 at 5 days [2] | CC50 (Huh-7 cells) | CC50 (MRC-5 cells) | CC50 at 5 days [3] |
| --- | --- | --- | --- | --- | --- | --- |
| CCCN(CC(C)C)C(=O)C1=Cc2ccc(C3=NCc4ccccc4N3)cc2N=C(N)C1 [Example 4, 2-Amino-8-(1,4-dihydroquinazolin-2-yl)-N-isobutyl-N-propyl-3H-1-benzazepine-4-carboxamide] | > 100 µM |  |  |  |  |  |
| CCCC[C@@H](Nc1nc(N)nc2cc(F)cnc12)C(O)CF (stereo partly drawn) [Compound 102, (3R)-3-((2-amino-7-fluoropyrido[3,2-d]pyrimidin-4-yl)amino)-1-fluoroheptan-2-ol] |  | 27.4 µM | 19.1 µM | 44.4 µM | 44.4 µM | 57.1 µM |
| CCCN(CC1CC1)C(=O)C1=Cc2ccc(C3=NCc4ccccc4N3)cc2N=C(N)C1 [Example 3, 2-Amino-N-(cyclopropylmethyl)-8-(1,4-dihydroquinazolin-2-yl)-N-propyl-3H-1-benzazepine-4-carboxamide] | > 100 µM |  |  |  |  |  |
| CCCC[C@@](C)(Nc1nc(N)nc2cccnc12)C(C)O (single isomer, unassigned) [Compound 97] |  | 33 µM | 27.5 µM | 44.4 µM | 44.4 µM | 30 µM |
| CCCC[C@](C)(CNC(C)=O)Nc1nc(N)nc2cccnc12 [Compound 61] |  | ≥ 44.4 µM | 44.4 µM | 44.4 µM | 44.4 µM | 212 µM |
| CCCC[C@](C)(CNC(C)=O)Nc1nc(N)nc2cc(F)cnc12 [Compound 101, (R)—N-(2-((2-amino-7-fluoropyrido[3,2-d]pyrimidin-4-yl)amino)-2-methylhexyl)acetamide] |  | ≥ 44.4 µM | 44.4 µM | 44.4 µM | 44.4 µM | 56.6 µM |
| CCCN(CCC)C(=O)C1=Cc2ccc(C3=NCc4c(Cl)cccc4N3)cc2N=C(N)C1 [Example 5, 2-Amino-8-(5-chloro-1,4-dihydroquinazolin-2-yl)-N,N-dipropyl-3H-1-benzazepine-4-carboxamide] | > 100 µM |  |  |  |  |  |
| CCCN(CCC)C(=O)C1=Cc2ccc(C3=NCc4ccccc4N3)cc2N=C(N)C1 [Example 1, 2-Amino-8-(1,4-dihydroquinazolin-2-yl)-N,N-dipropyl-3H-1-benzazepine-4-carboxamide] | > 100 µM |  |  |  |  |  |
| CCCN(CCC)C(=O)C1=Cc2ccc(C3=NCc4ccc(Cl)cc4N3)cc2N=C(N)C1 [Example 6, 2-Amino-8-(7-chloro-1,4-dihydroquinazolin-2-yl)-N,N-dipropyl-3H-1-benzazepine-4-carboxamide] | > 100 µM |  |  |  |  |  |
| CCCN(CCC)C(=O)C1=Cc2ccc(C3=NCc4ccncc4N3)cc2N=C(N)C1 [Example 2, 2-Amino-8-(1,4-dihydropyrido[3,4-d]pyrimidin-2-yl)-N,N-dipropyl-3H-1-benzazepine-4-carboxamide] | > 100 µM |  |  |  |  |  |
